The test system of series [1] is idiopathic pulmonary fibrosis model (IPF model) induced by bleomycin. Briefly: IPF model induced by bleomycin in rats. The series is classed as in vivo, male BN rats. The note with it: 30 mg/kg orally twice a day, 21 days; compared with control compound group; FIG. 1. The procedure: Using male BN rats, 180-240 g, idiopathic pulmonary fibrosis model (IPF model) was induced with a dose of 5 U/kg bleomycin. […] On the second day after the model was established, the animals were orally administered by gavage twice a day, where the administration group was administered with a dose of 30 mg/kg each time, and the solvent control group was administered with a blank solvent, and the administration continued for 21 days. During the administration, the body weight was weighed every three days. On day 21 of administration, alveolar lavage was conducted 2 h after the first administration, the inflammatory cells in the lavage fluid were counted, and the associated biomarkers in the supernatant of the lavage fluid were detected. After lavage, the left lungs of the rats were fixed, and stained with Masson's trichrome staining to score the fibrosis pathology. The remaining lung lobes were cryopreserved. The supernatant of the alveolar lavage fluid and the freshly frozen lung tissue of the three compound groups were taken and detected for a content of TGF-β1 protein and an amount of total protein by using ELISA, and the amount of TGF-β1 per milligram of total protein was calculated.

Series [2] addresses hERG channels (CHO cell line stably expressing hERG) (Homo sapiens (Human), UniProt Q12809). Briefly: Inhibitory effect on hERG by full-automatic electrophysiological patch clamp QPatch. Format: cell-based.
Method: Full-automatic electrophysiological patch clamp QPatch was used to detect the inhibitory effect of compounds on hERG. Cells used in this test were CHO cell line transfected with cDNA of hERG and stably expressing hERG channels (provided by Sophion Bioscience, Denmark), and the cell passage number was P24. The cells were cultured in a medium containing the following components (all purchased from Invitrogen): Ham's F12 medium, inactivated fetal bovine serum (10% (v/v)), hygromycin B (100 μg/ml), and Geneticin (100 μg/ml). CHO hERG cells were grown in a petri dish containing the above-mentioned medium and cultured in an incubator at 37° C. and containing 5% Co2.
The compound to be tested was prepared as a 10 mM stock solution in DMSO solvent, the compound was diluted to 3 mM, 1 mM, 0.3 mM, and 0.1 mM with DMSO, and then the compound was diluted to 30 μM, 10 μM, 3 μM, 1 μM, 0.3 μM and 0.1 μM with the extracellular fluid, so that except that the final concentration of DMSO in the 30 μM compound was 0.3%, the final concentration of DMSO in compound solutions of all other concentrations was 0.1%.
The CHO hERG cells, after being digested and resuspended, were added to the fully automated QPatch system (Sophion, Denmark), and subjected to a test according to the following preset procedure.
After reaching the ruptured whole cell configuration state in the initial stage, the whole cell current was recorded at room temperature (about 25° C.), and the cells were recorded for at least 120 seconds in order to achieve stability. The stable cells were selected for the test. During the whole test, the cell patch clamp was at a voltage of −80 mV, the cell patch clamp voltage was depolarized to +20 mV to activate the hERG potassium channels, and after 2.5 seconds, the cell patch clamp voltage was at −50 mV to eliminate inactivation and generate outward tail current. The peak tail current was used as the value of the hERG current. The voltage mode described above was applied to the cells for electrophysiological tests every 15 seconds. An intracellular liquid containing 0.1% dimethyl sulfoxide (solvent) was added to the cells to establish a baseline, and then the current was allowed to stabilize for 3 min. After the compound solution was added, the cells were kept in the test environment until the effect of the compound reached a steady state or until reaching 4 min. In the test experiments with different concentration gradients of the compound, the compound was added to the clamped cells from low to high concentration. After the compound test was finished, the cells were washed with the extracellular fluid until the current returned to a stable state.
The test data were analyzed by Qpatch analysis software provided by Sophion, Excel, and Graphpad Prism.
In series [3] the target is Autotaxin (ATX) enzyme (Homo sapiens (Human), UniProt Q13822). Briefly: Autotaxin (ATX) enzyme activity inhibition assay (Cayman Autotaxin Inhibitor Screening Assay Kit). Format: biochemical. The note with it: OD405, 37° C., 30 min; read-out: IC50, inhibitory activity on ATX activity. The procedure: Subsequently, the 8 concentrations were diluted with Autotaxin Assay buffer (1×) provided in the kit into 19× compound working solutions (DMSO content was 1.9%). The Autotaxin Assay Reagent (10×) was taken out and diluted by 10 times with Autotaxin Assay Buffer (1×). The Autotaxin Substrate was taken out, dissolved by adding 1.2 mL of Autotaxin Assay Buffer (1×), mixed evenly and stood at room temperature.

Series [4] can be described thus: Human liver microsome stability test. Format: in vitro ADME. The note with it: human liver microsomes. In general terms: Liver microsomes are vesicles of endoplasmic reticulum, rich in cytochrome P450 enzymes.
Method: The human liver microsome stability test was performed by incubating the compound and human liver microsomes in vitro. First, the test compound is prepared as a 10 mM stock solution in DMSO solvent, and then the compound was diluted to 0.5 mM with acetonitrile. Human liver microsomes (Corning) were diluted with PBS and prepared as a microsome/buffer solution, which was used to dilute 0.5 mM of the compound into a working solution. […] A deep-well multiwell plate was taken, 30 μL of the working solution and 15 μL of pre-warmed NADPH solution (6 mM) were sequentially added to each well to initiate a reaction, and the reaction was incubated at 37° C. […] After centrifugation, the supernatant was collected, and added with purified water in a ratio of 1:1 to perform LC-MS/MS detection. […] T1/2 was calculated by using Excel.
Series [5] can be described thus: Thermodynamic solubility test. The series is classed as physicochemical. The note with it: thermodynamic from solid. The protocol: The compound was accurately weighed, and the prepared phosphate buffer (pH 7.4), FeSSIF solution (pH 5.8) and FaSSGF solution (pH 1.6) were added to prepare a solution with a concentration of 4 mg/mL, which was shaken at 1,000 rpm for 1 hour, and then incubated overnight at room temperature. After the incubation, the solution was centrifuged at 12,000 rpm for 10 min to remove undissolved particles, and the supernatant was transferred to a new centrifuge tube. The supernatant was diluted appropriately, then added with an acetonitrile solution containing the internal standard, and quantified using a standard curve prepared with the same matrix.

Series [6] addresses ATX enzyme activity in human plasma (Homo sapiens (Human), UniProt Q13822). Briefly: Inhibition test of ATX enzyme activity in human plasma (LPA18:2 formation). The note with it: 37° C., 3 h. The series is classed as biochemical. The procedure:
Whole blood was collected from healthy volunteers and anticoagulated with heparin. The blood collection tubes were centrifuged at 3,000 rpm for 10 min, and the plasma was taken and stored at −80° C. for use.
The compound was serially diluted with DMSO according to the conventional concentration requirements, and then 3 μL of the diluted compound was added to a 96-well plate, and 147 μL of PBS was added to each well containing 3 μL of the compound. After mixing homogenously, 50 μL of the mixture was removed and added to a new 96-well plate. The human plasma was taken out from the −80° C. refrigerator and thawed through rapid shaking in a 37° C. water bath. 50 μL of the human plasma was taken and added to the 96-well plate containing 50 μL of the diluted compound (the final system was 1% DMSO). The group without the compound was set as the positive control group. The 96-well plate was shaken and mixed uniformly, and incubated at 37° C. for 3 h. A blank group was also provided, and the plasma of the blank group was stored at −80° C. The blank group is provided to determine the baseline concentration of endogenous LPA.
After the incubation was finished, the blank group was thawed on ice and transferred to an incubation plate. Excess acetonitrile containing the internal standard LPA17:0 was added to the incubation plate to precipitate the plasma protein. After vortex centrifugation, the supernatant was taken and diluted, and a peak area of LPA18:2 and a peak area of internal standard LPA17:0 were detected using LC-MSMS mass spectrometry.
According to the inhibition rates of different concentrations of the compound, the IC50 value of the compound, which is related to inhibition of ATX enzyme activity in human plasma, was calculated.

A short description of series [7]: Pharmacokinetic test in rats. Format: in vivo, male SD rats. The note with it: male, SD, rat, plasma. The protocol:
For the in vivo pharmacokinetic test of rats, 6 male SD rats were used, 180-240 g, fasted overnight. […] The blood samples were centrifuged at 8,000 rpm at 4° C. for 6 min, and plasma was collected and stored at −20° C. The plasma at each time point was taken and added with an acetonitrile solution containing internal standard in 3-5 times the amount, vortexed and mixed for 1 min, and centrifuged at 13,000 rpm at 4° C. for 10 min. The supernatant was collected, added and mixed with water in 3 times the amount. An appropriate amount of the mixture was taken for LC-MS/MS analysis. The main pharmacokinetic parameters were analyzed using WinNonlin 7.0 software with non-compartmental model.

The mark [8] stands for this setting: intravenous administration 1 mg/kg.
[9] abbreviates: oral administration by gavage 10 mg/kg.

The term IC50 denotes the concentration that inhibits the measured activity by half. Broadly, the half-life is how long it takes for the measured level to halve. A higher half-life goes with slow decline. By AUC(0-t) is commonly meant exposure summed from dosing to a finite time, without extrapolation to infinity. By clearance is commonly meant a measure of how efficiently the substance is removed, as volume per time. Low readings indicate a low capacity for elimination, high ones a high capacity for elimination. What is called Cmax is the peak of the concentration-time curve. The Tmax is the time from dosing to the highest level.

Converted amounts (≈) assume the structure as drawn. Read-outs that look alike come from different tables or passages of the source.

Sequence of hERG channels (CHO cell line stably expressing hERG) (Q12809 whole entry): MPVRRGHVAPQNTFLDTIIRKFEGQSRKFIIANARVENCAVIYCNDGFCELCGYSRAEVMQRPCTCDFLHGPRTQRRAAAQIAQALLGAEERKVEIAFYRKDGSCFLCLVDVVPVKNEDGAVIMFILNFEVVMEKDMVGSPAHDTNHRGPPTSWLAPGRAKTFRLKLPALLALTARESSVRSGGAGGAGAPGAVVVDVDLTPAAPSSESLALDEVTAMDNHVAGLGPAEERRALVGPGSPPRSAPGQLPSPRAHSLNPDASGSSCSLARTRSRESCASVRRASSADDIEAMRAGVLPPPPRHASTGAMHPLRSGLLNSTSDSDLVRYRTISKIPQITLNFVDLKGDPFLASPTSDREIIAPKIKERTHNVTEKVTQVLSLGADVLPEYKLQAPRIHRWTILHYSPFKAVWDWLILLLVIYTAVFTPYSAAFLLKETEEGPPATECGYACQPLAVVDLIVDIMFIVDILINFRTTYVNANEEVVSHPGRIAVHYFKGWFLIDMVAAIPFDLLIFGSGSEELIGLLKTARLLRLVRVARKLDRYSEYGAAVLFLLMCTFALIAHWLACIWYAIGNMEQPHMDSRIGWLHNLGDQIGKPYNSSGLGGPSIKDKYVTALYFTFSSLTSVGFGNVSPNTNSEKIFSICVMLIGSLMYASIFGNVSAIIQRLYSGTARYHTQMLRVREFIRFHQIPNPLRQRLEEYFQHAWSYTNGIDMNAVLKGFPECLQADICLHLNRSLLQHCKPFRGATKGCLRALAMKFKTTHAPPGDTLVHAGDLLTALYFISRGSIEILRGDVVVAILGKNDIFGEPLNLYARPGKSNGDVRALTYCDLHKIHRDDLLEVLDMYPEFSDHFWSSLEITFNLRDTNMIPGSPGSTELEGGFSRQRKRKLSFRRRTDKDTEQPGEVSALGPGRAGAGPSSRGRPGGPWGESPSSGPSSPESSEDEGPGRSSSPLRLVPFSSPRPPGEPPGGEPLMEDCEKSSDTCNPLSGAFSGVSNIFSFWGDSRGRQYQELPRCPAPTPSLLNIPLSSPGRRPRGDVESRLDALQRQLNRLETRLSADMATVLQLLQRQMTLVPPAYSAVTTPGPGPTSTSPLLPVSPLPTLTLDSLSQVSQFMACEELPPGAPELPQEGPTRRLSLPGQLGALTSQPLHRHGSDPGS

As for `C[C@@H](Cc1cnn[nH]1)OCC(=O)N1Cc2cnc(NC3Cc4ccccc4C3)nc2C1` [Compound I-2S, (S)-2-((1-(1H-1,2,3-triazol-5-yl)propan-2-yl)oxy)-1-(2-((2,3-dihydro-1H-inden-2-yl)amino)-5,7-dihydro-6H-pyrrolo[3,4-d]pyrimidin-6-yl)ethan-1-one], in series [1], the “weight reduction of the animals” value was “significantly less than that of the control compound group”. The IC50 in series [2] (CHO hERG cells, QPatch) was 8780 nM; in series [3], 1.4 nM; in series [6], 2.1 nM. Also, the “hERG IC50/ATX IC50” value in series [2] (ratio of hERG IC50 (μM) to ATX IC50 (nM)) was 8.87/1.40 = 6.3. Besides, the “Remaining percentage (%) of compound after incubation for 30 min” value in series [4] (30 min, 37° C., NADPH) stood at 42.9%. The half-life at 1 µM in series [4] (human) was determined as 26.6 min. In addition, the solubility in series [5] (FaSSGF solution, fassgf or other biorelevant, FaSSGF, pH 1.6, thermodynamic, read-out: Dissolubility FaSSGF (pH 1.6)) turned out to be 1240 µg/mL (≈ 2960 µM); in series [5] (phosphate buffered saline, aqueous buffer, PBS, pH 7.4, thermodynamic, read-out: Dissolubility PBS (pH 7.4)), 73.6 µg/mL (≈ 175 µM). For the same compound, the AUC(0-t) stood at 661 ng·h/mL in series [7] (setting [8]) and 3690 ng·h/mL in series [7] (setting [9]). In addition, the clearance in series [7] (setting [8]) is 25.2 mL/min/kg. The half-life in series [7] (setting [8]) was 20.4 min; in series [7] (setting [9]) it was 115 min. The Vd in series [7] (intravenous administration 1 mg/kg, read-out: Vz) stood at 0.74 L/kg. In series [7] (setting [9]), this compound registered a Cmax of 2420 ng/mL. In addition, the Tmax in series [7] (setting [9]) stood at 25.2 min.
